Patent US9867798B2, “Ladostigil therapy for immunomodulation” (priority 2012, dated 2018)
“And” between values parts separate entries of the source, which are not always exact repeats. Equal values may be shown once.

Tests used:
ChE [1] = assay: ChE inhibition in heart or brain of treated rats; type: in vivo
[2] = tested on: Psammomys obesus gerbils on high-energy diet; assay: Diabetes in gerbils on high-energy diet: glucose, insulin, pancreatic islets; type: in vivo; parameters: Change in glucose: unit: mg/dL
Protocol: Male Psammomys obesus gerbils aged 3.5-4 months were given a high-energy diet consisting of 938.5 g/Kg version of 2018SC+F Harlan Tekled Ltd., USA, supplemented with soybean oil to a final fat concentration of 6%. After one week on the diet, blood was taken for measurement of glucose and ChE activity. Half of the animals were given ladostigil (17 mg/kg/day) by gavage while the remainder received tap water by the same route. Blood was taken from the tail once weekly for measurement of glucose as described in Kalman R., et al, (2001). Lab Anim. 35:346-352. After three weeks of treatment the animals they were deeply anesthetized, blood was taken by cardiac puncture for measurement of ChE activity, glucose and insulin levels and the pancreas removed for section and staining with haematoxylin and eosin and the number of islets counted. Blood glucose of 11 animals had reached values exceeding 200 mg/dL after one week on the high energy diet and the average value for the whole group was 300±27 mg/dL. […] It is noted, that cholinesterase activity in plasma of Psammomys obesus is mostly mediated by butyrylcholinesterase (BuChE) rather than by AChE.

BuChE = BuChE (Homo sapiens, UniProt P06276); assay: Relative potency in inhibiting BuChE and AChE
BuChE, sequence (P06276 29-602): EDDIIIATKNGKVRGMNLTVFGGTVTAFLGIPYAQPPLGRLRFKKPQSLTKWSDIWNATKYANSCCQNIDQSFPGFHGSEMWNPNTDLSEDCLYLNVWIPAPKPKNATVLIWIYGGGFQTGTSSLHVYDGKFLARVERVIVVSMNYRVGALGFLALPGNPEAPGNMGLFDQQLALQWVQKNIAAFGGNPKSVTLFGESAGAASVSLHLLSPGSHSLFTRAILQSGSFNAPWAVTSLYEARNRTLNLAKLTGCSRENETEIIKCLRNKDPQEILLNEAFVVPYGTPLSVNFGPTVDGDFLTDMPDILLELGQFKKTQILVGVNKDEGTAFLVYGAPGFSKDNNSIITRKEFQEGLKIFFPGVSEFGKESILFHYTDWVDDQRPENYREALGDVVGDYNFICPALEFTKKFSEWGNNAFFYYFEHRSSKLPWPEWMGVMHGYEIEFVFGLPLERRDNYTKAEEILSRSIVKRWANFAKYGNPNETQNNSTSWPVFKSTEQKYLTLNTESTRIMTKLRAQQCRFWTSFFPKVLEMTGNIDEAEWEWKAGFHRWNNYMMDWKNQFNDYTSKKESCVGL

MAO-A = biological target: T1, MAO-A (Rattus norvegicus, UniProt P21396); assay: MAO-A activity in heart of treated rats; type: in vivo; conditions: read-out: MAO-A activity in the heart inhibited
T1 construct: from tissue; host or cells: heart of aged Wistar rats after chronic oral dosing
T1 sequence (P21396 1-526): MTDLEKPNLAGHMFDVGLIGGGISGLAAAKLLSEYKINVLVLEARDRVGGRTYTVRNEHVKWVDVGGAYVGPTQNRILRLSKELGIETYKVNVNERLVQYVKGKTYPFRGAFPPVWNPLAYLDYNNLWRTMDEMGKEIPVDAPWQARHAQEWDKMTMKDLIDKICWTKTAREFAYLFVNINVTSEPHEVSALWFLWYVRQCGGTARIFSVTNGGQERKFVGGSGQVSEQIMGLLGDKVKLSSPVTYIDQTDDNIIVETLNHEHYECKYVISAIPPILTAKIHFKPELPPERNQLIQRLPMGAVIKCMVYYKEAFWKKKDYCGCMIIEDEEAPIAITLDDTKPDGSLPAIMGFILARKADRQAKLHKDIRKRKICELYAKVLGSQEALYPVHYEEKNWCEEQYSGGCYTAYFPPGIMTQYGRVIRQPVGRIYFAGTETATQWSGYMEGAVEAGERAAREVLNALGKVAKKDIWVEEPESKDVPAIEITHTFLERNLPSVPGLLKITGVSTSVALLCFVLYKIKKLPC

ChE [3] = assay: Cholinesterase activity in spleen and plasma of mice (Example 4); type: in vivo, Balb-C mice; conditions: 10 mg/kg oral, two hours, ± SD, not significant
Protocol: Ladostigil 10 mg/kg or saline 1 mg/kg were given by gavage to groups of 6 Balb-C male mice weighing 24-30 gm. The mice were sacrificed 120 min later when ChE inhibition reaches its peak. The spleen was rapidly removed and weighed and blood was centrifuged at 14000 rpm at room temperature for 4 min to provide plasma. Phosphate buffer was added to the spleen at a ratio of 1 mg/ml and the tissue was homogenized at a speed of 24,000 rpm in cold phosphate buffer pH=7 containing 0.1% Triton and centrifuged at 14000 rpm. Aliquots of plasma and the supernatant from the spleen were incubated with acetylthiocholine and dinitro benzoic acid in phosphate buffer pH 7 and the rate of development of the yellow color was measured as described by Ellman et al, (1961). Percent inhibition of ChE activity was calculated by comparison with that of control mice given with saline. Protein concentration was determined by means of Bradford reagent (Bio-RAD, 500-0006) and results represented as activity/mg protein.

ChE [4] = assay: Cholinesterase inhibition in plasma and spleen of LPS injected mice (Example 5); type: in vivo, Balb-C mice; conditions: 120 min after oral administration; for Inhibition of ChE, plasma / Inhibition of ChE, spleen: LPS injected mice
Protocol: In experiments on the effect of chronic treatment with ladostigil on ChE activity in mice drinking DSS, the spleen was rapidly removed as described above, together with a colon segment of about 0.5 cm in length taken from the proximal area. Spleen and colon segments were washed in cold phosphate buffered saline (PBS) before they were frozen at −80° C. For assay, the tissue was unfrozen and weighed and PBS was added to each tissue at a ratio of 1 mg tissue to 1 ml. Tissues were homogenized at a speed of 24,000 rpm in cold phosphate buffer pH 7 containing 0.1% Triton and centrifuged at 14000 rpm. Aliquots of plasma and the supernatant from the spleen and colon were incubated with acetylthiocholine and dinitro benzoic acid in phosphate buffer pH 7 and the rate of development of the yellow color was measured as described by Ellman et al, (1961). Percent inhibition of ChE activity was calculated by comparison with that of control mice given water by gavage. Protein concentration was determined by means of by Pierce BCA Protein Assay Kit (Thermo Scientific, USA) according to the manufacturer's instructions. It is noted, that ChE activity in the colon and spleen of mice is attributed mainly to that of AChE while that in mouse plasma is mainly attributable to BuChE.
For the LPS experiment involving a single administration, ladostigil (10 or 20 mg/kg) in a volume of 1 ml/100 g or water (1 ml/100 g) were given by gavage to groups of 6-8 Balb-C male mice weighing 24-30 g and LPS as described above. […] Blood was taken into heparinized tubes and centrifuged at 14000 rpm at room temperature for 4 min to provide plasma and the spleen was rapidly removed, weighed, frozen in liquid nitrogen and stored at −80° C. until assayed. It is noted, that ChE inhibition in mouse plasma is mainly attributed to BuChE activity, and in mouse spleen—mainly to AChE activity.
Percent inhibition of ChE activity was calculated by comparison with that of control mice given water by gavage as described in Example 1 above.

SMILES: C#CCN[C@@H]1CCc2ccc(OC(=O)N(C)CC)cc21 [Ladostigil, R(+)-6-(N-methyl, N-ethyl-carbamoyloxy)-N′-propargyl-1-aminoindan]
- ChE inhibition in the heart or brain (ChE [1]; 1 mg/kg/day): No significant ChE inhibition
- ChE activity inhibited (ChE [1]; 8.5 mg/kg/day): 30%
- Blood glucose levels ([2]; 17 mg/kg/day, three weeks): decrease in blood glucose levels in all six animals
- Insulin after 3 weeks of treatment ([2]; individual gerbils, 17 mg/kg/day): 132 mU/L and 126.6 mU/L and 124.6 mU/L and 85.3 mU/L and 172 mU/L and 135.3 mU/L
- Glucose after 3 weeks of treatment ([2]; individual gerbils, 17 mg/kg/day by gavage, 17 mg/kg/day): 284 mg/dL and 250 mg/dL and 180 mg/dL and 311 mg/dL and 222 mg/dL and 266 mg/dL
- Change in glucose ([2]; individual gerbils, 17 mg/kg/day, after 3 weeks vs before, 17 mg/kg/day): −136 and −23 and −20 and −41 and −65 and −19
- No of islets ([2]; individual gerbils, 17 mg/kg/day, after 3 weeks, 17 mg/kg/day): 42 and 117 and 79 (2×) and 99 and 87
- Glucose before treatment ([2]; individual gerbils, baseline after one week of high energy diet, group later given 17 mg/kg, 17 mg/kg): 420 mg/dL and 273 mg/dL and 200 mg/dL and 352 mg/dL and 287 mg/dL and 285 mg/dL
- Potency in inhibiting BuChE relative to AChE (BuChE): at least ten times more potent in inhibiting BuChE than in inhibiting AChE
- inhibition at 8.5 mg/kg/day (MAO-A): 50 to 60%
- Inhibition of ChE in plasma (ChE [3]): 5.7±2.1%
- Inhibition of ChE in spleen (ChE [3]): 7.8±6.4%
- Inhibition of ChE activity in plasma or spleen (ChE [4]; ladostigil 10 mg/kg): did not significantly inhibit ChE activity
- Inhibition of ChE, plasma (ChE [4]; ladostigil 10 mg/kg): 7.8 ± 2.4%
- Inhibition of ChE, spleen (ChE [4]; ladostigil 10 mg/kg): 15.1 ± 3.6%
- Inhibition of ChE, plasma (ChE [4]; ladostigil 20 mg/kg): 27.4±5.9%
- Inhibition of ChE, spleen (ChE [4]; ladostigil 20 mg/kg): 28.1 ± 1.9 %
